Test results: patent publication US5462927A, “Peptides aiding nerve regeneration” (The Administrators of the Tulane Educational Fund, priority 1992, dated 1995)
Read-outs that look alike come from different tables or passages of the source. Square brackets hold non-standard residues; d marks the D form. Peptide text beside a SMILES is read from it.

Key:
[1] = test system: crushed peroneal nerve; endplates of the EDL; test: Endplate morphology of EDL muscle after peroneal nerve crush (silver-cholinesterase stain); type: in vivo, rat
Experimental: The effect of BIM-22015 regeneration of the crushed peroneal nerve in the rat was assessed using both morphological and physiological studies, as follows. Both locomotor pattern and endplate morphology during the early stages of crushed nerve regeneration were assessed after treatment with BIM-220150 Adult Sprague-Dawley male rats (Taconic Farms) were maintained at 25° C. on a 12 hour light and a 12 hour dark cycle and were supplied with standard rat chow and water ad lib. All surgery was performed under anesthesia with 8% chlorohydrate (0.6 ml/100 g I.P.). Denervation was accomplished using a #5 Dumont forceps with a uniformly filed tip to crush the peroneal nerve. This crush produced a 1 mm wide lesion just proximal to the EDL (extention digitarum longus) muscle. The wound was closed with surgical staples. Following surgery, the animal was immediately administered saline or BIM-22015 in one of the following dosages: (1) 0.9% saline, (2) 10.0 ug BIM-22015, (3) 5.0 ug BIM-22015, (3) 1.0 ug BIM-22015, or (4) 0.1 ug BIM-22015 (per animal). Administration continued once every 48 hours for 5 days; on day 5, the rats were killed and tissues taken for morphological analysis. All injections and surgeries occurred between 10:00 and 12:00 noon.
Morphological studies of crushed nerve regeneration were performed as follows. On day 5, the rats were anesthetized with 8% chlorohydrate (0.6 ml/100 g IP) before surgery. The animal was placed ventral side down and a skin incision was made on the hindlimb from the lateral epicondyle of the femur to the lateral malleolus in the ankle. The extensor digitorium longus muscle (EDL) was then carefully exposed from its surrounding connective tissue and extreme care taken to preserve the blood supply. The EDL is a heterogenous muscle consisting of both fast white muscle fibers and slow red muscle fibers. It is classified as a fast muscle based upon its isometric twitch parameters. The origin of the EDL is the epicondyle of the femur to the distal tendon which divides into four parts with insertions into the third phalange base of the second to the fifth digits. It is innervated by the peroneal nerve and its blood is supplied by the anterior tibial artery. The muscle was prepared for staining as follows.
The silver-cholinesterase method of staining of Pecot-Dechavssine et al. (1979 Stain. Technol. 54:25) was used to stain the endplates, or neuromuscular junctions, of the EDL. Briefly, the muscle was fixed in situ by 1% neutral formalin in normal Ringer's solution. The muscle was then excised and placed in fresh 1% neutral formalin solution for extra 3-4 minutes. The endplates were localized with the stain described by Karnovsky et al. (1964, J. Hist. Chem. Cytochem. 12:219) for 7-15 minutes under visual control. After localization, the EDL was soaked in 5% neutral formalin solution for 20 minutes, then washed in Triton X-100 detergent for 1 hour. After the detergent step, the EDL was fixed in 80% ethanol solution for 1 hour. Finally, the endplates were impregnated with silver using 0.5% protargol solution overnight (12-30 hrs., at 37° C.).
The following day, the excess silver was reduced using a Bodian developer for 18 minutes. The muscle was rinsed in distilled water, finely teased, and mounted using a glycoglyerol mounting gel.
The endplates were observed using Olympus BH series binocular microscope at a magnification of 100× using an oil immersion objective lens. A low light sensitive video camera mounted on top of the Olympus projected the slide onto a black and white monitor. A Bioquant image digitizer with a manual optic mouse was used to determine the following parameters: (1) endplate […], (2) endplate area, (3) endplate internal branching, and (4) muscle fiber diameter. The Bioquant statistical package was used to determine statistical differences, and the data are expressed as means and standard error of the mean. The Student's t-test and the ANOVA statistical tests were performed. […]

[2] = test system: sectioned sciatic nerve; common extensor muscle of the finger; test: Muscle weight after sciatic nerve section; type: in vivo, rat; details: for Muscle weight Normalized to Mean Animal Weight: 35d. p.o.
[3] = test system: sectioned sciatic nerve; common extensor muscle of the fingers; type: in vivo, rat; details: for Muscle Tetnus: Fatigue / Muscle Tetnus: Muscle Strength / Muscle Tetnus: Muscle Strength Normalized to Muscle Weight / Muscle Tetnus: Speed of Contraction / Muscle Tetnus: Speed of Relaxation / Tetanic Strength/Single Pulse Strength: 35d. p.o.p.
[4] = test system: sectioned sciatic nerve; common extensor muscle of the finger; test: Characteristics of a single pulse of the common extensor muscle after sciatic nerve section; type: in vivo, rat; details: for Single Pulse: Contraction Time / Single Pulse: Half-Relaxation Time / Single Pulse: Latence / Single Pulse: Muscle Strength Normalized to Muscle Weight / Single Pulse: Speed of Contraction / Single Pulse: Speed of Relaxation / Single Pulse: Strength: 35d. p.o.p.
[5] = test system: sciatic nerve after transection and end-to-end suture; test: Morphometry after section and suture of sciatic nerve; type: in vivo, rabbit
[6] = BIM 0.1 μG per animal every 48 hours, day 5, A = p < 0.025
[7] = BIM 0.1 μG per animal every 48 hours, day 5, A = p < 0.025, listed as BIM
[8] = BIM 1.0 μG per animal every 48 hours, day 5
[9] = BIM 5.0 μG per animal every 48 hours, day 5
[10] = BIM 10.0 μG per animal every 48 hours, day 5
[11] = Group 2: Tissue col 10.0 μg/0.5 ml (topical)
[12] = Group 3: Tissue col 1.1 μg/10.5 ml (topical)
[13] = Group 4: s.c. 5 μg 1 kg/day (18 days)
[14] = Group 3 (topical in tissucol, lower dose)
[15] = Group 4 (s.c. 5ug.kg.day for 18 days)
[16] = 1 cm distal to the transection, 32 days p.op., 1 μg/kg per day s.c.
[17] = Region of the Transection, 32 days p.op., 1 μg/kg per day s.c.
[18] = Region of the Transection, 96 days p.op., 1 μg/kg per day s.c.

## C[C@@H](N)C(=O)N[C@@H](CCC(N)=O)C(=O)N[C@@H](Cc1ccc(O)cc1)C(=O)N[C@@H](Cc1ccccc1)C(=O)N[C@@H](CCCNC(=N)N)C(=O)N[C@@H](Cc1c[nH]c2ccccc12)C(=O)NCC(N)=O [BIM-22015, D--Ala--Gln--Tyr--Phe--Arg--Trp--Gly--NH2] (H-[dA]QYFRWG-NH2)
[1]; BIM 0.1 μG per animal every 48 hours, day 5
  Endplate Morphology: Muscle Fiber Diameter: 63.6(2.72)
[1]; [6]
  Endplate Morphology: Internal Branching: significant increase
  Endplate Morphology: Perimeter: significant increase
[1]; [7]
  Endplate Morphology: Internal Branching: 260.5(39.2)
  Endplate Morphology: Perimeter: 244.3(8.63)
[1]; [8]
  Endplate Morphology: Internal Branching: 201.6(14.2)
  Endplate Morphology: Perimeter: 231.7(5.22)
[1]; BIM 1.0 μG per animal every 48 hours, day 5, C = p < 0.005
  Endplate Morphology: Muscle Fiber Diameter: high muscle hypertrophy
[1]; BIM 1.0 μG per animal every 48 hours, day 5, C = p < 0.005, listed as BIM
  Endplate Morphology: Muscle Fiber Diameter: 76.9(1.70)
[1]; [9]
  Endplate Morphology: Internal Branching: 220.2(18.7)
  Endplate Morphology: Muscle Fiber Diameter: 74.2(2.35)
[1]; BIM 5.0 μG per animal every 48 hours, day 5, B = p < 0.050
  Endplate Morphology: Perimeter: significant increase
[1]; BIM 5.0 μG per animal every 48 hours, day 5, B = p < 0.050, listed as BIM
  Endplate Morphology: Perimeter: 204.2(5.98)
[1]; [10]
  Endplate Morphology: Internal Branching: 173.2(14.6)
  Endplate Morphology: Perimeter: 231.7(12.2)
[1]; BIM 10.0 μG per animal every 48 hours, day 5, C = p < 0.005
  Endplate Morphology: Muscle Fiber Diameter: high muscle hypertrophy
[1]; BIM 10.0 μG per animal every 48 hours, day 5, C = p < 0.005, listed as BIM
  Endplate Morphology: Muscle Fiber Diameter: 82.8(3.74)
[2]; [11]
  Muscle Weight 35d. p.o.: 67.9 µg
  Muscle weight Normalized to Mean Animal Weight: 0.211
[2]; [12]
  Muscle Weight 35d. p.o.: 59.7 µg
  Muscle weight Normalized to Mean Animal Weight: 0.212
[2]; [13]
  Muscle Weight 35d. p.o.: 73.1 µg
  Muscle weight Normalized to Mean Animal Weight: 0.226
[2]; group 4 (s.c. administration), not statistically significant
  improvement of muscle weight normalized to mean animal weight over the control group 1: 15%
[2]; groups 2 and 3 (topical in tissucol)
  improvement of muscle weight normalized to mean animal weight over the control group 1: little improvement
[2]; topical administration (groups 2 and 3)
  effect on muscle measurements by route of administration: largely ineffective
[3]; Group 2 (topical in tissucol)
  Muscle Tetnus: Fatigue: 73,80%
  Muscle Tetnus: Muscle Strength: 61,83 g
  Muscle Tetnus: Muscle Strength Normalized to Muscle Weight: 0,91 g/ug
  Muscle Tetnus: Speed of Contraction: 2409 g/ms
  Muscle Tetnus: Speed of Relaxation: 2034 g/ms
  Tetanic Strength/Single Pulse Strength: 307,50%
[3]; [14]
  Muscle Tetnus: Fatigue: 75,55%
  Muscle Tetnus: Muscle Strength: 51,55 g
  Muscle Tetnus: Muscle Strength Normalized to Muscle Weight: 0,84 g/ug
  Muscle Tetnus: Speed of Contraction: 1737 g/ms
  Muscle Tetnus: Speed of Relaxation: 884 g/ms
  Tetanic Strength/Single Pulse Strength: 343,00%
[3]; [15]
  Muscle Tetnus: Fatigue: 72,12%
  Muscle Tetnus: Speed of Contraction: 5507 g/ms
  Muscle Tetnus: Speed of Relaxation: 4226 g/ms
  Tetanic Strength/Single Pulse Strength: 347,12%
[3]; rat, in vivo
  fatigability of the muscle: no effect
[3]; rat, in vivo, sc
  improvement of muscle strength over control group 1 (column 2, Table 3): 30%
[4]; Group 2 (topical in tissucol)
  Single Pulse: Contraction Time: 28.86 ms
  Single Pulse: Half-Relaxation Time: 64.69 ms
  Single Pulse: Latence: 9.93 ms
  Single Pulse: Muscle Strength Normalized to Muscle Weight: 0.30 g/µg
  Single Pulse: Speed of Contraction: 2419 g/ms
  Single Pulse: Speed of Relaxation: 514 g/ms
  Single Pulse: Strength: 20.03 g
[4]; [14]
  Single Pulse: Contraction Time: 16.37 ms
  Single Pulse: Half-Relaxation Time: 40.93 ms
  Single Pulse: Latence: 7.65 ms
  Single Pulse: Muscle Strength Normalized to Muscle Weight: 0.25 g/µg
  Single Pulse: Speed of Contraction: 2939 g/ms
  Single Pulse: Speed of Relaxation: 593 g/ms
  Single Pulse: Strength: 14.96 g
[4]; [15]
  Single Pulse: Contraction Time: 27.68 ms
  Single Pulse: Half-Relaxation Time: 60.72 ms
  Single Pulse: Latence: 9.48 ms
  Single Pulse: Speed of Contraction: 2420 g/ms
  Single Pulse: Speed of Relaxation: 635 g/ms
  Single Pulse: Strength: 26.45 g
[4]; Group 4 (s.c.), p=0.05
  improvement of muscle strength over control group 1 (column 1, Table 4): 28%
[4]; group 4 (s.c.), p=0.01
  improvement of speed of muscle contraction compared to group 1 (column 3, Table 4): 300%
[4]; printed as group 5
  speed of relaxation compared to group 1 (column 4, Table 4): dramatically improved
[5]; 0.5 μm sections after severance and end-to-end suture
  light microscopic evaluation of semi-thin sections, control vs experimental groups: did not disclose definite differences
[5]; 1 cm distal of the transection, period from the 32nd to the 96th day
  growth of the myelin sheath in treated animals vs controls: almost twice as fast
[5]; [16]
  Mean values of axon diameter: 1.545 μm
  Mean values of myelin sheath thickness: 0.310 μm
[5]; 1 cm distal to the transection, 96 days p.op., 1 μg/kg per day s.c.
  Mean values of axon diameter: 2.078 μm
[5]; [17]
  Mean values of axon diameter: 1.888 μm
  Mean values of myelin sheath thickness: 0.398 μm
[5]; [18]
  Mean values of axon diameter: 2.335 μm
  Mean values of myelin sheath thickness: 0.551 μm
  Number of myelinated axons/0.004 sq. mm: 62 /0.004 sq. mm
[5]; on the 32nd or on the 96th day p.op.
  statistically significant effect on the axon diameter: could not be demonstrated
